Target: T1, human CRHR2-alpha (Homo sapiens, UniProt Q13324)
T1 sequence (Q13324 1-411): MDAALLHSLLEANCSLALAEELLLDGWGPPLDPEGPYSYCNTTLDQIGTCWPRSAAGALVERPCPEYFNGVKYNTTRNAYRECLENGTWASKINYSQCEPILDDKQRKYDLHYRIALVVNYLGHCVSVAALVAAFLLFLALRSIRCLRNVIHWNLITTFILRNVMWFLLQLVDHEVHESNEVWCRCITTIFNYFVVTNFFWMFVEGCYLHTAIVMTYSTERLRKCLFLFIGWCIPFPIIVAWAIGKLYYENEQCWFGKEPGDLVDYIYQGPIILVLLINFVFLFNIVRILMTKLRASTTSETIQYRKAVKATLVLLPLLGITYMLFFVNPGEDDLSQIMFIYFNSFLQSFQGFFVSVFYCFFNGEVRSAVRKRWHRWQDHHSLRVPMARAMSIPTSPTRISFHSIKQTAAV
Test: cAMP functional assay for human CRHR2 (LANCE Ultra cAMP, TR-FRET)
Assay type: cell-based
Conditions: CHO-K1 cells expressing human CRHR2-alpha, agonist human urocortin2 at EC80, cAMP; read-out: IC50 against CRHR2
Description: cAMP functional assay for human CRHR1 and CRHR2
The ability of the compounds of this invention to inhibit either CRHR2 or CRHR1 is assessed by 3′,5′-cyclic adenosine monophosphate (cAMP) production in cells using the LANCE Ultra cAMP assay kit (ParkinElmer), which are designed based on the homogeneous time-resolved fluorescence resonance energy transfer (TR-FRET) immunoassay.
CHO-K1 (Chinese hamster ovary) cells stably expressing either human CRHR2-alpha (DiscoveRX, Cat. 95-0048C2) or human CRHR1-beta (DiscoveRX, Cat. 95-0047C2) are grown in HAM's F12 media supplemented with 10% fetal bovine serum (FBS), 100 units/mL penicillin, 100 microg/mL hygromycin and 0.5 microg/mL geneticin at 37° C. in 5% CO2 humidified incubator to 80% confluence. After 7 hours starvation treatment in culture media containing 0.1% FBS, the cells are washed with Hanks balanced salt solution (HBSS) and cryopreserved.
For cAMP assay, frozen cells are thawed and washed with HBSS, followed by resuspended in assay buffer (HBSS containing 0.1% bovine serum albumin, 0.5 mM isobutylmethylxanthine and 5 mM Hepes, pH 7.4) at the appropriate concentration for the assay. The cell suspensions are plated on 384-well microplates (Greiner Bio-One) at a density of 4,000 cells per well. After preincubating the cells with various concentrations of the compounds for 30 min at 25° C., an assay buffer containing EC80 concentration of each agonist is added and the cells are incubated for 30 min at 25° C. Human urocortin2 (Peptide Institute) and CRF (Peptide Institute) are used as agonists for CRHR2 and CRHR1, respectively. For the termination of assay, europium-labeled cAMP tracer and ULight (registered trademark) dye labeled cAMP antibodies, both prepared with Lance-Ultra cAMP detection reagent (Perkin Elmer) are added in the plate and incubate for 60 min at 25° C. After incubation, TR-FRET signal is detected by EnVision plate reader (PerkinElmer). The IC50 values for compounds are calculated from dose-response curves by fitting the percent inhibition using XLfit (ID Business Solutions).

Row | SMILES | IC50 [nM]
1 | Cc1ncc(Cl)cc1C(=O)N[C@H]1CC[C@H](Cn2c(=O)n(-c3ccc(-n4ccnc4)cc3)c3ccccc32)CC1 [Example 468, N-((1r,4r)-4-((3-(4-(1H-imidazol-1-yl)phenyl)-2-oxo-2,3-dihydro-1H-benzo[d]imidazol-1-yl)methyl)cyclo-hexyl)-5-chloro-2-methyl-nicotinamide] | < 300
2 | CNc1ncc(-n2c(=O)n(C[C@H]3CC[C@H](NC(=O)c4cc(Cl)cnc4C)CC3)c3ccccc32)cc1Cl [Example 522, 5-chloro-N-((1r,4r)-4-((3-(5-chloro-6-(methylamino)pyridin-3-yl)-2-oxo-2,3-dihydro-1H-benzo[d]imidazol-1-yl)methyl)cyclohexyl)-2-methyl-nicotinamide] | < 300
3 | Cc1ncc(Cl)cc1C(=O)N[C@H]1CC[C@H](Cn2c(=O)n(-c3cnc4c(c3)OCC(=O)N4)c3ccccc32)CC1 [Example 224, 5-chloro-2-methyl-N-((1r,4r)-4-((2-oxo-3-(3-oxo-3,4-dihydro-2H-pyrido[3,2-b][1,4]oxazin-7-yl)-2,3-dihydro-1H-benzo[d]imidazol-1-yl)methyl)cyclohexyl)nicotinamide] | < 300
4 | Cc1ncc(Cl)cc1C(=O)N[C@H]1CC[C@H](Cn2c(=O)n(-c3ccc4c(cnn4C)c3)c3ccccc32)CC1 [Example 141, 5-chloro-2-methyl-N-((1r,4r)-4-((3-(1-methyl-1H-indazol-5-yl)-2-oxo-2,3-dihydro-1H-benzo [d]imidazol-1-yl)methyl)cyclohexyl)nicotinamide] | < 300
5 | Cc1ccc(-n2c(=O)n(C[C@H]3CC[C@H](NC(=O)c4cc(Cl)cnc4C(F)F)CC3)c3nccnc32)cc1 [Example 506, 5-chloro-2-(difluoromethyl)-N-((1r,4r)-4-((2-oxo-3-(p-tolyl)-2,3-dihydro-1H-imidazo[4,5-b]pyrazin-1-yl)methyl)cyclohexyl)nicotinamide] | < 300
6 | CC(C)(O)C(=O)Nc1ccc(-n2c(=O)n(C[C@H]3CC[C@H](NC(=O)c4cc(Cl)cnc4C(F)F)CC3)c3ccccc32)cn1 [Example 669, 5-chloro-2-(difluoromethyl)-N-((1r,4r)-4-((3-(6-(2-hydroxy-2-methylpropana-mido)pyridin-3-yl)-2-oxo-2,3-dihydro-1H-benzo[d]imidazol-1-yl)methyl)cyclo-hexyl)nicotinamide] | < 300
7 | Cc1ncc(Cl)cc1C(=O)N[C@H]1CC[C@H](Cn2c(=O)n(-c3ccnc(N4CCN(C)C4=O)c3)c3ccccc32)CC1 [Example 690, 5-chloro-2-methyl-N-((1r,4r)-4-((3-(2-(3-methyl-2-oxoimi-dazolidin-1-yl)pyridin-4-yl)-2-oxo-2,3-dihydro-1H-benzo [d]imidazol-1-yl)methyl)cyclo-hexyl)nicotinamide] | < 300
8 | Cc1ncc(Cl)cc1C(=O)N[C@H]1CC[C@H](Cn2c(=O)n(CC(=O)c3ccc(F)cc3F)c3ccccc32)CC1 [Example 12, 5-chloro-N-((1r,4r)-4-((3-(2-(2,4-difluorophenyl)-2-oxoethyl)-2-oxo-2,3-dihydro-1H-benzo[d]imidazol-1-yl)methyl)cyclohexyl)-2-methylnicotinamide] | < 300
9 | O=C(N[C@H]1CC[C@H](Cn2c(=O)n(-c3ccnc(N4CCNC4=O)c3)c3ccccc32)CC1)c1cc(Cl)cnc1C(F)F [Example 691, 5-chloro-2-(difluoromethyl)-N-((1r,4r)-4-((2-oxo-3-(2-(2-oxoimidazolidin-1-yl)pyridin-4-yl)-2,3-dihydro-1H-benzo [d]imidazol-1-yl)methyl)cyclo-hexyl)nicotinamide] | < 300
10 | Cc1ncc(Cl)cc1C(=O)N[C@H]1CC[C@H](Cn2c(=O)n(-c3cccc(N(C)C)c3C#N)c3ccccc32)CC1 [Example 309, 5-choro-N-((1r,4r)-4-((3-(2-cyano-3-(dimethylamino)phenyl)-2-oxo-2,3-dihydro-1H-benzo[d]imidazol-1-yl)methyl)cyclohexyl)-2-methylnicotinamide] | < 300
11 | Cc1ncc(Cl)cc1C(=O)N[C@H]1CC[C@H](Cn2c(=O)n(-c3ccccc3C(F)(F)F)c3cccnc32)CC1 [Example 257, 5-chloro-2-methyl-N-((1r,4r)-4-((2-oxo-1-(2-(trifluoro-methyl)phenyl)-1H-imidazo [4,5-b]pyridin-3(2H)-yl)methyl)cyclohexyl)nicotinamide] | < 300

Second part, the compound after the results:

Row | IC50 [nM] | SMILES
12 | < 300 | O=C(N[C@H]1CC[C@H](Cn2c(=O)n(-c3cnc4[nH]c(CO)cc4c3)c3ccccc32)CC1)c1cc(Cl)cnc1C(F)F [Example 709, 5-chloro-2-(difluoromethyl)-N-((1r,4r)-4-((3-(2-(hydroxymethyl)-1H-pyrrolo[2,3-b]pyridin-5-yl)-2-oxo-2,3-dihydro-1H-benzo[d]imidazol-1-yl)methyl)cyclohexyl)nicotinamide]
13 | < 300 | O=C(N[C@H]1CC[C@H](Cn2c(=O)n(-c3cnc4c(ccn4CCO)c3)c3ccccc32)CC1)c1cc(Cl)cnc1C(F)F [Example 666, 5-chloro-2-(difluoromethyl)-N-((1r,4r)-4-((3-(1-(2-hydroxyethyl)-1H-pyrrolo[2,3-b]pyridin-5-yl)-2-oxo-2,3-dihydro-1H-benzo[d]imidazol-1-yl)methyl)cyclohexyl)nicotinamide]
14 | < 300 | CNc1cc(C)c(-n2c(=O)n(C[C@H]3CC[C@H](NC(=O)c4cc(Cl)cnc4C(F)F)CC3)c3ccccc32)cn1 [Example 465, 5-chloro-2-(difluoromethyl)-N-((1r,4r)-4-((3-(4-methyl-6-(methylamino)pyridin-3-yl)-2-oxo-2,3-dihydro-1H-benzo[d]imidazol-1-yl)methyl)cyclohexyl)nicotinamide]
15 | < 300 | O=C(N[C@H]1CC[C@H](Cn2c(=O)n(-c3ccc(N4CC5(COC5)CC4=O)nc3)c3ccccc32)CC1)c1cc(Cl)cnc1C(F)F [Example 584, 5-chloro-2-(difluoromethyl)-N-((1r,4r)-4-((2-oxo-3-(6-(7-oxo-2-oxa-6-azaspiro[3,4]octan-6-yl)pyridin-3-yl)-2,3-dihydro-1H-benzo[d]imidazol-1-yl)methyl)cyclohexyl) nicotinamide]
16 | < 300 | Cc1ncc(Cl)cc1C(=O)N[C@H]1CC[C@H](Cn2c(=O)n(-c3cccc(-n4cccn4)c3)c3ccccc32)CC1 [Example 541, N-((1r,4r)-4-((3-(3-(1H-pyrazol-1-yl)phenyl)-2-oxo-2,3-dihydro-1H-benzo[d]imidazol-1-yl)methyl)cyclohexyl)-5-chloro-2-methylnicotinamide]
17 | < 300 | Cc1ncc(Cl)cc1C(=O)N[C@H]1CC[C@H](Cn2c(=O)n(-c3ccc(-n4ccnn4)nc3)c3ccccc32)CC1 [Example 511, N-((1r,4r)-4-((3-(6-(1H-1,2,3-triazol-1-yl)pyridin-3-yl)-2-oxo-2,3-dihydro-1H-benzo[d]imidazol-1-yl)methyl)cyclohexyl)-5-chloro-2-methylnicotinamide]
18 | < 300 | CNc1ccc(-n2c(=O)n(C[C@H]3CC[C@H](NC(=O)c4cc(Cl)cnc4C)CC3)c3ccccc32)c(C)n1 [Example 150, 5-chloro-2-methyl-N-((1r,4r)-4-((3-(2-methyl-6-(methylamino)pyridin-3-yl)-2-oxo-2,3-dihydro-1H-benzo[d]imidazol-1-yl)methyl)cyclohexyl)nicotinamide]
19 | < 300 | Cc1ncc(Cl)cc1C(=O)N[C@H]1CC[C@H](Cn2c(=O)n(-c3cccc4ncccc34)c3ccccc32)CC1 [Example 345, 5-chloro-2-methyl-N-((1r,4r)-4-((2-oxo-3-(quinolin-5-yl)-2,3-dihydro-1H-benzo[d]imidazol-1-yl)methyl)cyclo-hexyl)nicotinamide]
20 | < 300 | O=C(N[C@H]1CC[C@H](Cn2c(=O)n(-c3ccc(N4CCNC4=O)cn3)c3ccccc32)CC1)c1cc(Cl)cnc1C(F)F [Example 717, 5-chloro-2-(difluoromethyl)-N-((1r,4r)-4-((2-oxo-3-(5-(2-oxoimidazolidin-1-yl)pyridin-2-yl)-2,3-dihydro-1H-benzo [d]imidazol-1-yl)methyl)cyclo-hexyl)nicotinamide]
21 | < 300 | O=C(N[C@H]1CC[C@H](Cn2c(=O)n(-c3cncc(N4CCOCC4)c3)c3ccccc32)CC1)c1cc(Cl)cnc1C(F)F [Example 476, 5-chloro-2-(difluoromethyl)-N-((1r,4r)-4-((3-(5-morpholino-pyridin-3-yl)-2-oxo-2,3-dihydro-1H-benzo[d]imidazol-1-yl)methyl)cyclohexyl) nicotinamide]

— patent US11802120B2, “Fused cyclic urea derivatives as CRHR2 antagonist” (RaQualia Pharma Inc., priority 2018, dated 2023)
